Experimental data published in patent US9193731B2, “Antimicrobial compounds and methods of making and using the same” (Melinta Therapeutics, Inc., priority 2009, dated 2015).

test system: Escherichia coli strain ATCC25922; assay: standard microdilution assay to determine minimum inhibitory concentrations (MICs); type: cell-based; conditions: Escherichia coli strain ATCC25922, microdilution
Procedure, shortened: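 E. coli strain ATCC25922 tested per CLSI microdilution methodology (about 100 microliters per well) to find minimum inhibitory concentrations. Activity scored categorically at a 16 micrograms/ml threshold.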

Row | SMILES | E. coli ATCC25922 MIC
1 | CNCCN1CCCC(c2cc3cn(-c4ccc(CNCCCNC(=N)N)cc4)c(=O)nc3[nH]2)C1 (stereo not shown) [Compound 2042a] | + (a “+” indicates that the compound has an MIC value of 16 micrograms/ml or less)
2 | NCCCNCc1ccc(-n2cc3cc(-c4cc(C(=O)N5CCN(CCO)CC5)cc(N5CCNCC5)c4)[nH]c3nc2=O)cc1 [Compound 860] | − (a “−” indicates that the compound has an MIC value greater than 16 micrograms/ml)
3 | NC(N)=NCCC(=O)NCc1ccc(-n2cc3cc(-c4ccc(S(=O)(=O)N(CCCc5cccnc5)C5CCNCC5)cc4)[nH]c3nc2=O)cc1 [Compound 1190] | − (a “−” indicates that the compound has an MIC value greater than 16 micrograms/ml)
4 | CN(CCCO)Cc1cc(-c2cc3cn(-c4ccc(CNCCCNC(=N)N)cc4)c(=O)nc3[nH]2)cc(N2CCNCC2)c1 [Compound 937] | + (a “+” indicates that the compound has an MIC value of 16 micrograms/ml or less)
5 | N=C(N)NCCCNC(=O)c1ccc(-n2cc3cc(-c4ccc(S(=O)(=O)N(CC5COc6ccccc6O5)C5CCNCC5)cc4)[nH]c3nc2=O)cc1 (stereo not shown) [Compound 1010] | + (a “+” indicates that the compound has an MIC value of 16 micrograms/ml or less)
6 | N=C(N)NCCC(NCc1ccc(-n2cc3cc(-c4cc(CCCCN)cc(OC(F)(F)F)c4)[nH]c3nc2=O)cc1)C(F)(F)F (stereo not shown) [Compound 2078a] | + (a “+” indicates that the compound has an MIC value of 16 micrograms/ml or less)
7 | N=C(N)NCCCNCc1ccc(-n2cc3cc(-c4cc(CCCN)cc(OC(F)(F)F)c4)[nH]c3nc2=O)cc1 [Compound 2058a] | + (a “+” indicates that the compound has an MIC value of 16 micrograms/ml or less)
8 | N=C(N)NCCCNCc1ccc(-n2cc3cc(-c4cc(C(=O)N5CCS(=O)(=O)CC5)cc(N5CCNCC5)c4)[nH]c3nc2=O)cc1 [Compound 875] | + (a “+” indicates that the compound has an MIC value of 16 micrograms/ml or less)
9 | N=C(N)NCCCNCc1ccc(-n2cc3cc(-c4ccc(S(=O)(=O)N(CCCc5ccncc5)C5CCNCC5)cc4)[nH]c3nc2=O)cc1 [Compound 838] | + (a “+” indicates that the compound has an MIC value of 16 micrograms/ml or less)
10 | N=C(N)NCCCNC(=O)c1ccc(-n2cc3cc(-c4cc(CCCCN)cc(OC(F)(F)F)c4)[nH]c3nc2=O)cc1 [Compound 2048a] | + (a “+” indicates that the compound has an MIC value of 16 micrograms/ml or less)
11 | N=C(N)NCCCNCCCn1cc2cc(-c3ccc(S(=O)(=O)NC4CCNCC4)cc3)[nH]c2nc1=O [Compound 1059] | + (a “+” indicates that the compound has an MIC value of 16 micrograms/ml or less)
12 | N=C(N)NCCCNCc1ccc(-n2cc3cc(-c4cc(C(=O)NCC(F)F)cc(N5CCNCC5)c4)[nH]c3nc2=O)cc1 [Compound 970] | + (a “+” indicates that the compound has an MIC value of 16 micrograms/ml or less)
13 | N=C(N)NCCCNCc1ccc(-n2cc3cc(-c4ccc(S(=O)(=O)N(CCCC5CCCC5)C5CCNCC5)cc4)[nH]c3nc2=O)cc1 [Compound 840] | + (a “+” indicates that the compound has an MIC value of 16 micrograms/ml or less)
14 | Nc1nccc(CCCNCc2ccc(-n3cc4cc(-c5ccc(S(=O)(=O)NC6CCNCC6)cc5)[nH]c4nc3=O)cc2)n1 [Compound 1132] | − (a “−” indicates that the compound has an MIC value greater than 16 micrograms/ml)
15 | N=C(N)NCCCNCc1ccc(-c2cn3cc(-c4ccc(C(=O)N5CCN(CCF)CC5)cc4)[nH]c3nc2=O)cc1 [Compound 826] | − (a “−” indicates that the compound has an MIC value greater than 16 micrograms/ml)
16 | Cc1cc(C)n2nc(CCCN(C3CCNCC3)S(=O)(=O)c3ccc(-c4cc5cn(-c6ccc(CNCCCNC(=N)N)cc6)c(=O)nc5[nH]4)cc3)nc2n1 [Compound 986] | − (a “−” indicates that the compound has an MIC value greater than 16 micrograms/ml)
17 | N=C(N)NCCCNCc1ccc(-c2cn3cc(-c4ccc(S(=O)(=O)N5CCN(C(=O)OCc6ccccc6)CC5)cc4)[nH]c3nc2=O)cc1 [Compound 790] | + (a “+” indicates that the compound has an MIC value of 16 micrograms/ml or less)
18 | NCCCCOc1ccc(-c2cn3cc(-c4ccc(S(=O)(=O)N5CCNCC5)cc4)[nH]c3nc2=O)cc1 [Compound 809] | − (a “−” indicates that the compound has an MIC value greater than 16 micrograms/ml)
19 | N=C(N)NCCCNCc1ccc(-n2cc3cc(-c4ccc(S(=O)(=O)CCCNC5CCNC5)cc4)[nH]c3nc2=O)cc1 (stereo not shown) [Compound 1330] | + (a “+” indicates that the compound has an MIC value of 16 micrograms/ml or less)
20 | CC1CN(S(=O)(=O)c2ccc(-c3cc4cn(-c5ccc(CNCCCNC(=N)N)cc5)c(=O)nc4[nH]3)cc2)CC(C)N1 (stereo not shown) [Compound 872] | + (a “+” indicates that the compound has an MIC value of 16 micrograms/ml or less)
21 | N=C(N)NCCCNCc1ccc(-n2cc3cc(-c4cc(CN)cc(OCC(F)CN)c4)[nH]c3nc2=O)cc1 (stereo not shown) [Compound 2051a] | + (a “+” indicates that the compound has an MIC value of 16 micrograms/ml or less)
22 | NCCCOc1cccc(-c2cc3cn(-c4ccc(CNCCCN=C(N)N)cc4)c(=O)nc3[nH]2)c1 [Compound 1179] | + (a “+” indicates that the compound has an MIC value of 16 micrograms/ml or less)
23 | COC(CN)COc1cccc(-c2cc3cn(-c4ccc(CNCCCNC(=N)N)cc4)c(=O)nc3[nH]2)c1 (stereo not shown) [Compound 1453] | + (a “+” indicates that the compound has an MIC value of 16 micrograms/ml or less)
24 | N=C(N)NCCC(=O)NCc1ccc(-n2cc3cc(-c4ccc(S(=O)(=O)NC5CCNCC5)cc4)[nH]c3nc2=O)cc1 [Compound 1075] | + (a “+” indicates that the compound has an MIC value of 16 micrograms/ml or less)
25 | N=C(N)NCCCNCc1ccc(-c2cn3cc(-c4ccc(C(=O)NCCO)cc4)[nH]c3nc2=O)cc1 [Compound 828] | + (a “+” indicates that the compound has an MIC value of 16 micrograms/ml or less)

same assay, conditions: Escherichia coli, ATCC25922, Escherichia coli strain ATCC25922, microdilution; read-out: E. coli ATCC25922 MIC

Row | MIC [µg/mL] | SMILES
26 | < 16 | NCCCNCc1ccc(-n2cc3cc(C4C[C@@H](N)[C@@H](CO)O4)[nH]c3nc2=O)cc1 (stereo partly shown) [Compound 1246]
27 | > 16 | NCCCNCc1ccc(-n2cc3cc(C4=CCCCC4)[nH]c3nc2=O)cc1 [Compound 623]
28 | > 16 | O=c1nc2[nH]c(-c3ccc(S(=O)(=O)NC4CCNCC4)cc3)cc2cn1-c1cccc(OCC2CCNCC2)c1 [Compound 1141]
29 | > 16 | NCCc1cn(CCCCO)c2cc(-n3cc4cc(CCS(=O)(=O)C5CCNCC5)[nH]c4nc3=O)ccc12 [Compound 1239]
30 | < 16 | N=C(N)NCCCNCc1ccc(-n2cc3cc(C4C[C@@H](N)[C@@H](CO)O4)[nH]c3nc2=O)cc1 (stereo partly shown) [Compound 1245]
31 | > 16 | NCc1ccc(-n2cc3cc(-c4ccc(S(=O)(=O)N(CCCc5ccc(F)cc5)C5CCNCC5)cc4)[nH]c3nc2=O)cc1 [Compound 1053]
32 | > 16 | NCCCCOc1ccc(-c2cn3cc(-c4ccc(C(=O)NC5CCNCC5)cc4)[nH]c3nc2=O)cc1 [Compound 829]
33 | > 16 | NCCCCCN1CCC(n2cc3cc(-c4ccc(F)cc4)[nH]c3nc2=O)C1 (stereo not shown) [Compound 560]
34 | > 16 | N=C(N)NCCCCCN1CCN(c2cn3cc(-c4ccc(Br)cc4)[nH]c3nc2=O)CC1 [Compound 882]
35 | > 16 | NOCCNC(=O)c1ccc(-n2cc3cc(-c4ccc(S(=O)(=O)NC5CCNCC5)cc4)[nH]c3nc2=O)cc1 [Compound 1136]
36 | > 16 | COCc1cc2cn(-c3ccc(CNCCCN)cc3)c(=O)nc2[nH]1 [Compound 610]
37 | > 16 | NCCCCCN1CC=C(n2cc3cc(-c4ccc(F)cc4)[nH]c3nc2=O)CC1 [Compound 508]
38 | > 16 | N=C(N)NCCCNCc1ccc(-c2cn3cc(-c4ccc(C(=O)N5CCN(CCN6CCOCC6)CC5)cc4)[nH]c3nc2=O)cc1 [Compound 684]
39 | > 16 | O=C(NC1CCNCC1)c1ccc(-c2cc3cn(-c4ccc(CNCCCCl)cc4)c(=O)nc3[nH]2)cc1F [Compound 254]
40 | > 16 | N=C(N)NCCCNCc1ccc(-c2cn3cc(-c4ccc(C(=O)N5CCC(F)(F)CC5)cc4)[nH]c3nc2=O)cc1 [Compound 704]
41 | < 16 | NCCCNCc1ccc(-n2cc3cc(CCN[C@@H]4CCCNC4)[nH]c3nc2=O)cc1 [Compound 814]
42 | < 16 | NC(=O)/N=C(/N)NCCNCc1ccc(-n2cc3cc(-c4ccc(C(=O)NC5CCNCC5)cc4)[nH]c3nc2=O)cc1 [Compound 229]
43 | > 16 | NCCCN(CCCN)Cc1ccc(-n2cc3cc(-c4ccc(C(=O)NC5CCOCC5)cc4)[nH]c3nc2=O)cc1 [Compound 193]
44 | < 16 | N=C(N)NCCCNCc1ccc(-n2cc3cc(CCN(C(=O)c4ccccc4)C4CCNCC4)[nH]c3nc2=O)cc1 [Compound 688]
45 | < 16 | N=C(N)NCCCNCc1ccc(-n2cc3cc(-c4ccc(S(=O)(=O)[C@H]5CCNC5)cc4)[nH]c3nc2=O)cc1 [Compound 1154]
46 | > 16 | NCC(Cn1cc2cc(-c3ccc(S(=O)(=O)NC4CCNCC4)cc3)[nH]c2nc1=O)OCc1ccc(F)cc1 (stereo not shown) [Compound 1085]
47 | < 16 | N=C(N)NCCCNC(=O)c1ccc(-n2cc3cc(-c4ccc(C[C@H](N)CO)cc4)[nH]c3nc2=O)cc1 [Compound 1164]
48 | > 16 | N=C(N)NCCCCN1CCC(n2cc3c(nc2=O)[nH]c2ccccc23)C1 (stereo not shown) [Compound 562, N-{4-[3-(2-oxo-2,9-dihydro-1,3,9-triaza-fluoren-3-yl)-pyrrolidine-1-yl]-butyl}-guanidine]
49 | < 16 | N=C(N)NCCCNCc1ccc(-n2cc3cc(-c4cc(CCCCN)cc(C(F)(F)F)c4)[nH]c3nc2=O)cc1 [Compound 2029a]
